Read-outs that look alike come from different tables or passages of the source.
How the values were obtained:
[1] = Phase 1 food effect study (Part 2), single 20-mg oral dose of Compound A tablet, fed vs fasted; format: in vivo, human; conditions: for CL/F / AUC(0-inf) / Cmax / half-life / AUC(0-t) / Vd/F: geometric mean; for Tmax / AUC(0-inf) / Cmax / half-life / AUC(0-t) / Vd/F: male, human, plasma, 20 mg; for AUC(0-t): read-out: AUC0-24; for Vd/F: read-out: Vz/F
Experimental: The primary objectives of this study are: to characterize the biotransformation and excretion of Compound A following a single 20 mg oral dose of Compound A capsule containing a microtracer of [^14C]-Compound A solution in healthy male subjects (Part 1) and to evaluate the effect of a high-fat meal on the pharmacokinetics (PK) of Compound A following a single oral 20-mg dose of Compound A tablet (Part 2).
Part 2 design: Part 2 will be a 2-period crossover study; in Period 1, subjects (n=12) will be randomized to receive either an oral 20 mg dose of Compound A tablet (Treatment B) under fed (n=6) or fasted (n=6) conditions. In Period 2, subjects will receive Treatment B under converse conditions based on treatment assignment in Period 1. After screening, subjects (n=12) eligible for participation in the study will return to the study center on Day −1 for baseline assessments. Subjects who continue to be qualified for participation in the study will be randomized and enrolled in the study on the morning of Day 1. Subjects (n=6) will be enrolled and randomized to receive Treatment B under fed or fasted conditions on the morning of Day 1 after fasting for at least 8 hours. Fed subjects will be served a standard high fat meal breakfast, or its equivalent, that must be consumed within 30 minutes from serving. Dosing must occur 30 minutes (+5 minutes) after serving a subject breakfast. All subjects (fed and fasted) will fast (not to consume any food) until 4 hours post dose. Water will be allowed during the fasting period. Subjects will be domiciled at the study center from Day −1 until the morning of Day 5 of each period. Subjects will be discharged from the study center on the morning of Day 5 upon satisfactory safety review and completion of study-related procedures. Safety and tolerability data will be monitored and collected following each dosing period. Periods 1 and 2 will be separated by a washout period of at least 7 days (no more than 10 days) from prior dose to the next dose. In certain instances, a longer washout may be acceptable if previously agreed to.
Serial blood samples (10 mL) will be collected at predose (0 hour) and at 0.5, 1, 2, 3, 6, 12, 24, 48, 72 and 96 hours post dose for the determination of plasma concentrations of Compound A and the O-desmethyl metabolite of Compound A. Safety will be monitored throughout the study; safety evaluations will include AE reporting, physical examinations, vital sign measurements, ECG, and clinical laboratory safety tests. Concomitant medications will be assessed and recorded throughout the study as well. In addition, during the subjects' stay-in-the clinic (i.e., confinement period), fasting plasma glucose levels will be monitored as part of the clinical laboratory safety tests. For Parts 1 and 2, all subjects will return to the clinic within 7 to days after the last dose for follow up safety assessments. In the event that a subject discontinues prematurely from the study, every reasonable effort should be made (and documented) to ensure that all procedures and evaluations scheduled for the follow-up visit are performed at the time of discontinuation or a follow-up visit should be scheduled within 7 to days from the discontinuation day.
Part 2 dosing: In Part 2, subjects will fast overnight for at least 8 hours prior to Compound A administration. On the morning of Day 1, each subject will receive a 20-mg tablet of Compound A orally. Subjects randomized to receive Compound A under fed conditions will be a served a standard high fat meal (breakfast).
The standard high fat meal or its equivalent must be consumed within minutes of serving. Dosing must occur 30 minutes (+5 minutes) after serving the meal. The tablet will be administered with approximately 240 mL of non-carbonated, room temperature water. After dosing, subjects will continue to fast until 4 hours after dosing.

[2] = Phase 1 crossover pharmacokinetic study of tablet and capsule formulations, single oral dose; format: in vivo, human; conditions: male, human, plasma, oral; for AUC(0-t): read-out: AUC0-24
Experimental: Certain formulations provided herein were evaluated in a Phase 1, open-label, randomized, crossover study.
On Day 1 of Period 1, following an overnight fast of at least 8 hours, subjects were randomized to one of the following 3 sequences to receive Treatment A, B or C (Table 30).
In Treatment A, one 20-mg reference Compound A API-in-capsule was administered orally after at least 8 hour fast with 240 mL of non-carbonated, room temperature water. In Treatment B, one 20-mg tablet of Compound A (Tablet Formulation XIII) was administered under fasted conditions. In Treatment C, four 5-mg tablets of Compound A (Tablet Formulation XIV) were administered under fasted conditions. The 20-mg tablet and four 5-mg tablets were administered orally after at least 8 hour fast with 240 mL of non-carbonated, room temperature water.
For each period, serial blood samples were collected before dosing (zero hour) and at 0.5, 1, 1.5, 2, 2.5, 3, 4, 6, 8, 12, 24, 48, 72, and 96 hours after dosing. Plasma concentrations of Compound A were determined for determining PK parameters, such as […], AUC0-∞, Cmax, Tmax, t1/2, CL/F, and Vz/F for Compound A. Plasma PK parameters were calculated using non compartmental methods. Analyses of variance (ANOVA) were performed on the natural log-transformed AUC0-t, AUC0-∞, and Cmax for Compound A. The geometric mean ratios (test/reference) and their 90% confidence intervals were also calculated. For Tmax, non parametric analysis was used to produce median differences.

[3] = fed vs fasted, healthy adult males, 20 mg Compound A
[4] = po, Fasted (n = 11), single 20-mg oral dose of Compound A tablet
[5] = po, Fed (n = 11, high fat meal), single 20-mg oral dose of Compound A tablet
[6] = upon administration of about 20 mg of Compound A (protocol of Section 6.5.1)
[7] = Treatment A: one 20-mg Compound A API-in-capsule, fasted, n = 18, geometric mean

SMILES: CC(C)(O)c1ccc(-c2cnc3c(n2)N([C@H]2CC[C@H](O)CC2)C(=O)CN3)cn1 [O-Desmethyl metabolite, 1-((1r,4r)-4-hydroxycyclohexyl)-7-(6-(2-hydroxypropan-2-yl)pyridin-3-yl)-3,4-dihydropyrazino[2,3-b]pyrazin-2(1H)-one]
- CL/F ([1]; Fasted (n = 11), single 20-mg oral dose of Compound A tablet): 2.0 L/h
- CL/F ([1]; Fed (n = 11, high fat meal), single 20-mg oral dose of Compound A tablet): 2.0 L/h
- decrease in Cmax with a high fat meal [1, 3]: ~17%
- increase in overall exposure (AUCinf) with a high fat meal [1, 3]: ~3%
- Tmax ([1]; oral, fed vs fasted, healthy adult males, 20 mg Compound A, read-out: delay in Tmax with a high fat meal): 3 h
- Tmax ([1]; po, Fasted (n = 11), single 20-mg oral dose of Compound A tablet, healthy adult males, median, read-out: Tmax): 3 h
- AUC(0-inf) [1, 4]: 9830 ng·h/mL
- Cmax [1, 4]: 425 ng/mL
- half-life [1, 4]: 888 min
- AUC(0-t) [1, 4]: 6400 ng·h/mL
- Vd/F [1, 4]: 34.7 L
- AUC(0-inf) [1, 5]: 10100 ng·h/mL
- Cmax [1, 5]: 364 ng/mL
- half-life [1, 5]: 894 min
- AUC(0-t) [1, 5]: 6270 ng·h/mL
- Vd/F [1, 5]: 42.6 L
- Tmax ([1]; po, Fed (n = 11, high fat meal), single 20-mg oral dose of Compound A tablet, median, read-out: Tmax): 6 h
- Cmax [2, 6]: 503 ng/mL
- Tmax [2, 6]: 3 h
- half-life [2, 6]: 858 min
- AUC(0-t) [2, 6]: 7480 ng·h/mL
- AUC(0-inf) ([2]; upon administration of about 20 mg of Compound A (protocol of Section 6.5.1), read-out: AUC∞): 11900 ng·h/mL
- half-life [2, 7]: 858 min
- Tmax ([2]; Treatment A: one 20-mg Compound A API-in-capsule, fasted, healthy adult males, n = 18, median): 3 h
- Cmax [2, 7]: 503 ng/mL
- AUC(0-t) [2, 7]: 7480 ng·h/mL
- AUC(0-inf) ([2]; Treatment A: one 20-mg Compound A API-in-capsule, fasted, n = 18, geometric mean, read-out: AUC0-∞): 11900 ng·h/mL

From patent US9403829B2, “Pharmaceutical compositions of 7-(6-(2-hydroxypropan-2-yl)pyridin-3-yl)-1-((trans)-4-methoxycyclohexyl)-3,4-dihydropyrazino [2,3-b]pyrazin-2(1H)-one, a solid form thereof and methods of their use” (Signal Pharmaceuticals, LLC, priority 2011, dated 2016)
